# Earlier results, collected in PMC10667676, “Pharmacokinetics and bioequivalence of sunitinib and Sutent® in Chinese healthy subjects: an open-label, randomized, crossover study” (Frontiers in Pharmacology, 2023).
# Experiments:
# [1] = design: method as in Bello and e t al., 2006; settings: healthy subjects, high-fat, high-calorie diet, oral 50 mg; ref Bello and e t al., 2006
# CYP enzymes = settings: ref Zhou and Gallo, 2010; Kassem et al., 2012a
smiles,measurement,setting,value
CCN(CC)CCNC(=O)c1c(C)[nH]c(/C=C2\C(=O)Nc3ccc(F)cc32)c1C [Sunitinib],Elimination half-life,"healthy subjects' plasma, no reference given",40 to 60 h
same,"Elimination through the feces, share of total administered dose","primary route of elimination, ref Adams and Leggas, 2007",61%
same,"Renal excretion, share of total administered dose","ref Adams and Leggas, 2007",16%
same,Effect of food consumption on bioavailability,"ref Bello and e t al., 2006",unaltered
same,AUC0-∞,[1],1489 (1276–1736) ng*h/mL
same,AUC0–t,[1],1476 (1264–1724) ng*h/mL
same,Cmax,[1],25.1 (21.1–29.7) ng/mL
same,Tmax,[1],8.03 h
same,t1/2,[1],59.1 h
same,Inhibition or induction of CYP enzymes,CYP enzymes,unlikely to significantly inhibit or induce
